Test results published in ChEMBL document CHEMBL2163261, “Anti-HIV-1 activity of resveratrol derivatives and synergistic inhibition of HIV-1 by the combination of resveratrol and decitabine” (Bioorg Med Chem Lett, 2012).
pEC50: −log10 of the molar value.

Assays:
[1] = system: Human immunodeficiency virus 1; assay: Antiviral activity against HIV1 infected in human U373-MAGI cells expressing CXCR4 assessed as inhibition of viral infection preincubated for 2 hrs prior to infection followed by compound wash out measured after 48 hrs by single round replication assay; format: functional, organism-based; conditions: for pEC50: Human immunodeficiency virus 1, U373-MAGI
[2] = system: Human immunodeficiency virus 1; assay: Antiviral activity against HIV1 infected in human U373-MAGI cells expressing CXCR4 assessed as infected host cells at 20 uM preincubated for 2 hrs prior to infection followed by compound wash out post infection measured after 48 hrs by single round replication assay; format: functional
[3] = Cytotoxicity against human U373-MAGI cells expressing CXCR4; format: cell-based; conditions: read-out: TC50 (the source's name)
[4] = system: Human immunodeficiency virus 1; assay: Antiviral activity against HIV1 infected in human U373-MAGI cells expressing CXCR4 assessed as frequency of viral mutagenesis at 20 uM preincubated for 2 hrs prior to infection followed by compound wash out measured after 48 hrs by flow cytometry relative to control; format: functional
[5] = Selectivity index, ratio of TC50 for human U373-MAGI cells to EC50 for human U373-MAGI cells infected with HIV1; format: toxicity, cell-based; conditions: read-out: Selectivity Index
[6] = system: Human immunodeficiency virus 1; assay: Antiviral activity against HIV1 infected in human U373-MAGI cells expressing CXCR4 assessed as frequency of viral mutagenesis at 6 uM preincubated for 2 hrs prior to infection followed by compound wash out measured after 48 hrs by flow cytometry relative to control; format: functional
[7] = system: Human immunodeficiency virus 1; assay: Antiviral activity against HIV1 infected in human U373-MAGI cells expressing CXCR4 assessed as infected host cells at 6 uM preincubated for 2 hrs prior to infection followed by compound wash out measured after 48 hrs by single round replication assay; format: functional
[8] = system: Human immunodeficiency virus 1; assay: Antiviral activity against HIV1 infected in human U373-MAGI cells expressing CXCR4 assessed as infected host cells at 30 uM preincubated for 2 hrs prior to infection followed by compound wash out measured after 48 hrs by single round replication assay; format: functional
[9] = system: Human immunodeficiency virus 1; assay: Antiviral activity against HIV1 infected in human U373-MAGI cells expressing CXCR4 assessed as frequency of viral mutagenesis at 30 uM preincubated for 2 hrs prior to infection followed by compound wash out measured after 48 hrs by flow cytometry relative to control; format: functional
[10] = system: Human immunodeficiency virus 1; assay: Antiviral activity against HIV1 infected in human U373-MAGI cells expressing CXCR4 assessed as frequency of viral mutagenesis at 70 nM preincubated for 2 hrs prior to infection followed by compound wash out measured after 48 hrs by flow cytometry relative to control; format: functional
[11] = system: Human immunodeficiency virus 1; assay: Antiviral activity against HIV1 infected in human U373-MAGI cells expressing CXCR4 assessed as infected host cells at 70 nM preincubated for 2 hrs prior to infection followed by compound wash out measured after 48 hrs by single round replication assay; format: functional

Compound	pEC50 [1]	Activity [1]	CC50 [3] [µM]	selectivity ratio [5]	further results
Oc1cc(O)cc(-c2ccc3cc(O)ccc3c2)c1	< 4.12				
O=C(/C=C/c1ccc(O)cc1)c1cc(O)cc(O)c1	< 4.12				
Oc1ccc(/C=C/c2cc(O)cc(O)c2)cc1 [RESVERATROL]	< 4.12	Dose-dependent effect	> 300		Activity [2]: 91%; Ratio [4]: 1.08
Oc1ccc(-c2ncc(-c3cc(O)cc(O)c3)cn2)cc1	< 4.12				
Cn1c(-c2ccc(O)cc2)ccc1-c1cc(O)cc(O)c1	< 4.12				
Oc1ccc(-c2cnc(-c3cc(O)cc(O)c3)nc2)cc1	< 4.12				
Oc1cc(O)cc(-c2ccc3cnccc3c2)c1	< 4.12				
Oc1cc(O)cc(-c2ccc(-c3ccncc3)cc2)c1	< 4.00				
Oc1ccc(-c2c(-c3cc(O)cc(O)c3)sc3ccccc23)cc1	4.46	Dose-dependent effect	131	3.8	
Oc1cc(O)cc(/C=C/c2ccc(O)c(O)c2)c1 [PICEATANNOL]	4.67	Dose-dependent effect	> 400	> 18.7	Ratio [6]: 1.16; Activity [7]: 88%
Oc1ccc(-c2sc3ccccc3c2-c2cc(O)cc(O)c2)cc1	4.35	Dose-dependent effect	118	2.6	Activity [8]: 99%; Ratio [9]: 1.08
Oc1ccc(-c2cc(-c3cc(O)cc(O)c3)on2)cc1	< 4.12				
Oc1ccc(-n2cc(-c3cc(O)cc(O)c3)nn2)cc1	< 4.12				
Nc1ncn([C@H]2C[C@H](O)[C@@H](CO)O2)c(=O)n1 [DECITABINE]					Ratio [10]: 1.26; Activity [11]: 93%
Oc1ccc(-c2c(-c3cc(O)cc(O)c3)oc3ccccc23)cc1	4.46	Dose-dependent effect	84.8	2.4	
Oc1ccc(-c2oc3ccccc3c2-c2cc(O)cc(O)c2)cc1	4.19	Dose-dependent effect	108	1.5	
Oc1ccc(-c2ccc(-c3cc(O)cc(O)c3)cc2)cc1	5.06	Dose-dependent effect	179	20.3	Ratio [6]: 1.1; Activity [7]: 96%
